Assay results from patent publication US7432283B2, “Heterocyclic GABAA subtype selective receptor modulators” (Roche Palo Alto LLC, priority 2004, dated 2008).
Where a name gives a salt, the structure may show the parent alone.

| Compound | melting point |
| --- | --- |
| Cc1cc(C)c(N2CCCc3c2nn(C)c3CN2CCc3ccccc3C2)c(C)c1 (as salt: hydrochloride) [Compound 7-5, 2-[2-Methyl-7-(2,4,6-trimethyl-phenyl)-4,5,6,7-tetrahydro-2H-pyrazolo[3,4-b]pyridin-3-ylmethyl]-1,2,3,4-tetetrahydroisoquinolinedihydrochloride] | 236.4 to 241 °C |
| Cc1cc(C)c(N2CCCc3c2nn(C)c3Br)c(Cl)c1 [Compound 1-1, 3-Bromo-7-(2-chloro-4,6-dimethylphenyl)-2-methyl-4,5,6,7-tetrahydro-2H-pyrazolo[3,4-b]pyridine] | 106 to 107 °C |
| Cc1cc(C)c(N2CCCc3c2nn(C)c3Br)c(C)c1 [Compound 1-3, 3-Bromo-2-methyl-7-(2,4,6-trimethyl-phenyl)-4,5,6,7-tetrahydro-2H-pyrazolo[3,4-b]pyridine] | 94.6 to 97.9 °C |
| Cn1nc2c(c1Br)CCCN2c1c(Cl)cc(Cl)cc1Cl [Compound 1-6, 3-Bromo-2-methyl-7-(2,4,6-trichloro-phenyl)-4,5,6,7-tetrahydro-2H-pyrazolo[3,4-b]pyridine] | 100 to 101 °C |
| COc1ccc(N2CCCc3c2nn(C)c3Br)c(C)c1 [Compound 1-7, 3-Bromo-2-methyl-7-(4-methoxy 2-methyl-phenyl)-4,5,6,7-tetrahydro-2H-pyrazolo[3,4-b]pyridine] | 101.7 to 104.1 °C |
| Cn1nc2c(c1Br)CCCN2c1ccc(Cl)cc1 [Compound 1-8, 3-Bromo-2-methyl-7-(4-chloro-phenyl)-4,5,6,7-tetrahydro-2H-pyrazolo[3,4-b]pyridine] | 113.8 to 114.9 °C |
| Cn1nc2c(c1Cl)CCCN2c1ccc(Cl)cc1 [Compound 1-10, 3-chloro-7-(4-chloro-phenyl)-2-methyl-4,5,6,7-tetrahydro-2H-pyrazolo [3,4-b]pyridine] | 96.5 to 97.5 °C |
| Cc1cc(C)c(N2CCCc3c2nn(C)c3Cl)c(C)c1 [Compound 1-11, 3-chloro-7-(2,4,6-trimethyl-phenyl)-2-methyl-4,5,6,7-tetrahydro-2H-pyrazolo[3,4-b]pyridine] | 83 to 86 °C |
| Cc1cc(C)c(N2CCCc3c2[nH]n(C)c3=O)c(Cl)c1 [Compound 1-15, 7-(2-Chloro-4,6-dimethyl-phenyl)-2-methyl-1,2,4,5,6,7-hexahydro-pyrazolo[3,4-b]pyridin-3-one] | 103 to 109 °C |
| Cn1[nH]c2c(c1=O)CCCN2c1ccc(Cl)cc1Cl [Compound 1-16, 7-(2,4-dichloro-phenyl)-2-methyl-1,2,4,5,6,7-hexahydro-pyrazolo[3,4-b]pyridin-3-one] | 98 to 100.5 °C |
| Cn1[nH]c2c(c1=O)CCCN2c1ccc(Cl)cc1 [Compound 1-17, 7-(4-chloro-phenyl)-2-methyl-1,2,4,5,6,7-hexahydro-pyrazolo[3,4-b]pyridin-3-one] | 219.5 to 221.6 °C |
| CCCC(O)(CCC)c1c2c(nn1C)N(c1c(C)cc(C)cc1Cl)CCC2 [Compound 2-1, 4-[7-(2-Chloro-4,6-dimethylphenyl)-2-methyl-4,5,6,7-tetrahydro-2H-pyrazolo[3,4-b]pyridin-3-yl]heptan-4-ol] | 129 to 130 °C |
| CCCC(O)(CCC)c1c2c(nn1C)N(c1c(C)cc(C)cc1C)CCC2 [Compound 2-2, 4-[2-Methyl-7-(2,4,6-trimethylphenyl)-4,5,6,7-tetrahydro-2H-pyrazolo[3,4-b]pyridin-3-yl] heptan-4-ol] | 126 to 127.9 °C |
| CCCC(O)(c1cccs1)c1c2c(nn1C)N(c1c(C)cc(C)cc1C)CCC2 (stereo not shown) [Compound 2-3, 1-[2-Methyl-7-(2,4,6-trimethylphenyl)-4,5,6,7-tetrahydro-2H-pyrazolo[3,4-b]pyridin-3-yl]-1-thiophen-2-ylbutan-1-ol] | 175.9 to 178.4 °C |
| CCCC(O)(CCC)c1c2c(nn1C)N(c1c(C)cc(C)cc1C)CCCC2 [Compound 2-4, 4-[2-Methyl-8-(2,4,6-trimethylphenyl)-2,4,5,6,7,8-hexahydro-1,2,8-triazaazulen-3-yl]heptan-4-ol] | 87 to 91.1 °C |
| CCCC(O)(CCC)c1c2c(nn1C)N(c1ccc(Cl)cc1Cl)CCC2 [Compound 2-5, 4-[7-(2,4-Dichlorophenyl)-2-methyl-4,5,6,7-tetrahydro-2H-pyrazolo [3,4-b]pyridin-3-yl]heptan-4-ol] | 121.4 to 122.6 °C |
| COCC(O)(COC)c1c2c(nn1C)N(c1c(C)cc(C)cc1C)CCC2 [Compound 2-6, 1,3-Dimethoxy-2-[2-methyl-7-(2,4,6-trimethylphenyl)-4,5,6,7-tetrahydro-2H-pyrazolo[3,4-b]pyridin-3-yl]propan-2-ol] | 120.3 to 121.8 °C |
| COCCC(O)(COC)c1c2c(nn1C)N(c1c(C)cc(C)cc1C)CCC2 (stereo not shown) [Compound 2-7, 1,4-Dimethoxy-2-[2-methyl-7-(2,4,6-trimethylphenyl)-4,5,6,7-tetrahydro-2H-pyrazolo[3,4-b]pyridin-3-yl]butan-2-ol] | 107.9 to 110.9 °C |
| CCCC(O)(c1nccs1)c1c2c(nn1C)N(c1c(C)cc(C)cc1C)CCC2 (stereo not shown) [Compound 2-8, 1-[2-Methyl-7-(2,4,6-trimethylphenyl)-4,5,6,7-tetrahydro-2H-pyrazolo[3,4-b]pyridin-3-yl]-1-thiazol-2-ylbutan-1-ol] | 160.1 to 165.6 °C |

| Compound | melting point |
| --- | --- |
| Cc1cc(C)c(N2CCCc3c2nn(C)c3C(O)c2ccco2)c(C)c1 (stereo not shown) [Compound 2-9, Furan-2-yl[2-methyl-7-(2,4,6-trimethyl-phenyl)-4,5,6,7-tetrahydro-2H-pyrazolo[3,4-b]pyridin-3-yl]methanol] | 163.1 to 174.4 °C |
| CCC(O)c1c2c(nn1C)N(c1c(C)cc(C)cc1C)CCC2 (stereo not shown) [Compound 2-10, 1-[2-Methyl-7-(2,4,6-trimethylphenyl)-4,5,6,7-tetrahydro-2H-pyrazolo[3,4-b]pyridin-3-yl]propan-1-ol] | 179.4 to 180.9 °C |
| CCCC(O)(c1nccn1CC)c1c2c(nn1C)N(c1c(C)cc(C)cc1C)CCC2 (stereo not shown) [Compound 2-11, 1-(1-Ethyl-1H-imidazol-2-yl)-1-[2-methyl-7-(2,4,6-trimethylphenyl)-4,5,6,7-tetrahydro-2H-pyrazolo[3,4-b]pyridin-3-yl]butan-1-ol] | 94.9 to 100.9 °C |
| Cc1cc(C)c(N2CCCc3c2nn(C)c3C2(O)CCOCC2)c(C)c1 [Compound 2-12, 4-[2-Methyl-7-(2,4,6-trimethylphenyl)-4,5,6,7-tetrahydro-2H-pyrazolo[3,4-b]pyridin-3-yl]tetrahydropyran-4-ol] | 193 to 195.1 °C |
| Cc1cc(C)c(N2CCCc3cn(C)nc32)c(Cl)c1 [Compound 2-13, 7-(2-Chloro-4,6-dimethylphenyl)-2-methyl-4,5,6,7-tetrahydro-2H-pyrazolo[3,4-b]pyridine] | 97 to 98 °C |
| CC(O)c1c2c(nn1C)N(c1ccc(Cl)cc1Cl)CCC2 (stereo not shown) [Compound 2-14, 1-[7-(2,4-Dichloro-phenyl)-2-methyl-4,5,6,7-tetrahydro-2H-pyrazolo[3,4-b]pyridin-3-yl]-ethanol] | 56.7 to 64 °C |
| Cc1cc(C)c(N2CCCc3c2nn(C)c3C(C)O)c(C)c1 (stereo not shown) [Compound 2-15, 1-[7-(2,4,6-trimethyl-phenyl)-2-methyl-4,5,6,7-tetrahydro-2H-pyrazolo[3,4-b]pyridin-3-yl]-ethanol] | 178 to 179.6 °C |
| Cc1cc(C)c(N2CCCc3c2nn(C)c3C(C)(C)O)c(C)c1 [Compound 2-16, 2-[7-(2,4,6-trimethyl-phenyl)-2-methyl-4,5,6,7-tetrahydro-2H-pyrazolo[3,4-b]pyridin-3-yl]-propan-2-ol] | 158.9 to 161.6 °C |
| CSc1c2c(nn1C)N(c1c(C)cc(C)cc1C)CCC2 [Compound 2-20, 2-Methyl-3-methylsulfanyl-7-(2,4,6-trimethyl-phenyl)-4,5,6,7-tetrahydro-2H-pyrazolo[3,4-b]pyridine] | 90.3 to 91.7 °C |
| Cc1cc(C)c(N2CCCc3c2nn(C)c3S(C)(=O)=O)c(C)c1 [Compound 2-21, 3-Methanesulfonyl-2-methyl-7-(2,4,6-trimethyl-phenyl)-4,5,6,7-tetrahydro-2H-pyrazolo[3,4-b]pyridine] | 181.6 to 183 °C |
| Cc1cc(C)c(N2CCCc3c2nn(C)c3C#N)c(C)c1 [Compound 2-22, 2-Methyl-7-(2,4,6-trimethyl-phenyl)-4,5,6,7-tetrahydro-2H-pyrazolo[3,4-b] pyridine-3-carbonitrile] | 128.5 to 136.6 °C |
| Cc1cc(C)c(N2CCCc3c2nn(C)c3C=O)c(C)c1 [Compound 2-24, 2-Methyl-7-(2,4,6-trimethyl-phenyl)-4,5,6,7-tetrahydro-2H-pyrazolo[3,4-b] pyridine-3-carbaldehyde] | 120.5 to 123.5 °C |
| CC/C=C(\CCC)c1c2c(nn1C)N(c1c(C)cc(C)cc1Cl)CCC2 [Compound 3-1, 7-(2-Chloro-4,6-dimethylphenyl)-2-methyl-3-(1-propylbut-1-enyl)-4,5,6,7-tetrahydro-2H-pyrazolo[3,4-b]pyridine] | 86.7 to 88.2 °C |
| CC/C=C(\CCC)c1c2c(nn1C)N(c1c(C)cc(C)cc1C)CCC2 [Compound 3-2, 2-Methyl-3-(1-propylbut-1-enyl)-7-(2,4,6-trimethylphenyl)-4,5,6,7-tetrahydro-2H-pyrazolo[3,4-b]pyridine] | 101.6 to 102.6 °C |
| CC/C=C(\CCC)c1c2c(nn1C)N(c1c(C)cc(C)cc1C)CCCC2 [Compound 3-4, 2-Methyl-3-(1-propylbut-1-enyl)-8-(2,4,6-trimethylphenyl)-2,4,5,6,7,8-hexahydro-1,2,8-triazaazulene] | 101.9 to 103.9 °C |
| C=Cc1c2c(nn1C)N(c1ccc(Cl)cc1Cl)CCC2 [Compound 3-7, 7-(2,4-Dichloro-phenyl)-2-methyl-3-vinyl-4,5,6,7-tetrahydro-2H-pyrazolo[3,4-b]pyridine] | 99.6 to 100.6 °C |
| C=Cc1c2c(nn1C)N(c1c(C)cc(C)cc1C)CCC2 [Compound 3-8, 2-methyl-7-(2,4,6-trimethyl-phenyl)-3-vinyl-4,5,6,7-tetrahydro-2H-pyrazolo[3,4-b]pyridine] | 64.4 to 67.6 °C |
| CCCC(CCC)c1c2c(nn1C)N(c1c(C)cc(C)cc1C)CCC2 [Compound 4-2, 2-Methyl-3-(1-propylbutyl)-7-(2,4,6-trimethylphenyl)-4,5,6,7-tetrahydro-2H-pyrazolo[3,4-b]pyridine] | 91.5 to 92 °C |
